From publication PMC5263243, “PPE Surface Proteins Are Required for Heme Utilization by Mycobacterium tuberculosis” (mBio, 2017) come the findings set out here.

pKd: −log10 of the molar value.

Experiment [1] has as its target PPE36 (Mycobacterium tuberculosis, UniProt P9WI01). The experiment in a line: biochemical.
The target of experiment [2] is T1, PPE62 (Mycobacterium tuberculosis, UniProt P9WHX7).
T1 construct: PPE62His6 (Rv3533c)
T1 sequence (P9WHX7 1-582): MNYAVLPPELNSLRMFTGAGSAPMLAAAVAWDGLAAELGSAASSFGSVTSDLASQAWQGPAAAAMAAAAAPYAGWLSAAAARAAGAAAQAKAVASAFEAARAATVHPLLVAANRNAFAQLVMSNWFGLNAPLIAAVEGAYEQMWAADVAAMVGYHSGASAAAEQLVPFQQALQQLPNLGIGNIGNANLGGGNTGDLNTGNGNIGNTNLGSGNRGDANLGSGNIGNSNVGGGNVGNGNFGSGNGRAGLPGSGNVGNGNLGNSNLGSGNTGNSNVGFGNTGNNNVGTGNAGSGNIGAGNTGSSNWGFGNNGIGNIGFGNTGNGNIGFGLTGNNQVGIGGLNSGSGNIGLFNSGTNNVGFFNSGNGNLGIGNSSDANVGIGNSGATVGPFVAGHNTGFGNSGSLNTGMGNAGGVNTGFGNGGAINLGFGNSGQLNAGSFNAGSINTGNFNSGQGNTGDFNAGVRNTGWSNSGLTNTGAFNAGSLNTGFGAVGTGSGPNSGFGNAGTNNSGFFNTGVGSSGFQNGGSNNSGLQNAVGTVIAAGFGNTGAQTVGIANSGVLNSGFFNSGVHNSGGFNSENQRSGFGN
The experiment in a line: SPR (Biacore T200, NTA chip, […] binding model). Particulars: read-out: Heme dissociation constant. On the technique in general: In SPR one partner is held on a chip, and binding of the other changes the refractive index at the surface.

Chain of PPE36 (P9WI01 whole entry): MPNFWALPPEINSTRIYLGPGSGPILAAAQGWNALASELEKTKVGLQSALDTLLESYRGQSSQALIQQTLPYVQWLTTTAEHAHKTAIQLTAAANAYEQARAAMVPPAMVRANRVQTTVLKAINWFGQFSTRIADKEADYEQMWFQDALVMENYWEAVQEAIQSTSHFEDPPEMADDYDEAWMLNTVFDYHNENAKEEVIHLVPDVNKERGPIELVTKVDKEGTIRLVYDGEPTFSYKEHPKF
Chain of PPE36 (L7N6B5 1-98 partner): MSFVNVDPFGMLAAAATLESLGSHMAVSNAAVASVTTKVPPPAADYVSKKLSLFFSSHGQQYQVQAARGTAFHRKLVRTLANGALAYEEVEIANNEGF

Turning to `C=CC1=C(C)C2=Cc3c(C=C)c(C)c4[n]3[Fe]([Cl])[n]3c(c(C)c(CCC(=O)O)c3=CC3=NC(=C4)C(C)=C3CCC(=O)O)=CC1=N2` [hemin], the results for the pKd in experiment [1] and in experiment [2] were 2.40 and 3.40, respectively.
